# Test results reported in patent publication US20230149418A1, “METHODS AND SYNERGIC COMPOSITIONS FOR TREATING VIRAL INFECTIONS” (HADASIT MEDICAL RESEARCH SERVICES AND DEVELOPMENT LTD., priority 2018, published 2023).
# “And” between values parts separate entries of the source, which are not always exact repeats. Equal entries are not always repeated. Where two headings read alike, the source gives them in different places.
# Key:
# [1] = male rats, 50 mg/kg for 14 days; cited from earlier work
# [2] = preclinical in vitro and in vivo screens; cited from earlier work
# HCMV TB40/E strain = assay: Plaque reduction assay, HCMV TB40/E strain in human foreskin fibroblasts, single drugs and 2-drug combinations (Chou-Talalay); assay type: cell-based, human cytomegalovirus; conditions: for Dose of drug alone at Fa 0.9: Fa 0.9, drug alone; for EC50: Human betaherpesvirus 5, Fibroblast
# Experimental: The CMV strain used was TB40/E. The CMV strain was propagated and tittered in human foreskin fibroblasts (HFF) cells. Cell-free virus stocks and cell-associated clinical isolates were maintained at -70° C. Viral stocks were tittered by serial 10-fold dilution in 24-well tissue culture plates containing HFF monolayers overlaid with agarose-medium. After incubation for 7 to 14 days, plaques were enumerated, and virus titer was determined as plaque forming units (PFU) per milliliter (ml). Stocks of artemisone (10 mM), ganciclovir (10 mM), BDCRB (120 mM), brincidofovir (1 mM), maribavir (10 mM) and letermovir (10 mM) were prepared in DMSO or H2O.
# Cell monolayers were inoculated in 24-well culture plates with 0.2 ml of virus suspension containing 60 to 100 PFU per well. After adsorption for 60 -120 min at 37° C., the inoculum was removed, and culture medium was replaced with agarose-medium overlay containing serial concentrations of the tested drug(s). Plates were incubated for 7-14 days at 37° C. in a 5% CO2 incubator. Plaques were then counted microscopically.
# The effect of a combination of artemisone with each one of ganciclovir (HCMV DNA polymerase), BDCRB (HCMV terminase inhibitor), brincidofovir (HCMV DNA polymerase inhibitor), maribavir (HCMV UL97 kinase inhibitor) and letermovir (HCMV terminase inhibitor) was evaluated by the classical plaque reduction assay. The in vitro activity of each of the above mentioned antiviral compounds alone or in combination with artemisone was evaluated by the classical plaque reduction assay, using HCMV TB40/E strain in human foreskin fibroblasts cells. The concentration of each antiviral compound that reduced the plaque formation by 50% (EC50) was determined as previously described in Wolf DG et al., J Clin Invest. 1995;95:257-63. The individual EC50 values in human foreskin fibroblasts were as follows: artemisone EC50 - 1 µM; ganciclovir EC50 - 1 µM; maribavir EC50 - 1 µM; BDCRB EC50 - 0.5 µM; letermovir EC50 - 5 nM; brincidofovir EC50 -1 nM.
# For the 2-drug combination studies, the EC50 value of each drug was used to determine an equipotent ratio between the two compounds (EC50 of drug 1 / EC50 of drug 2). Serial 2-fold dilutions of a mixture comprising artemisone and another antiviral compound at initial concentrations equivalent to 4-fold the equipotent ratio were added to duplicate wells of cells infected with HCMV. Overall, 5 different concentrations of the drug combinations were used: 4xEC50, 2xEC50, 1xEC50,0.5xEC50,0.25xEC50. The cell monolayers were inoculated in 24-well culture plates with 0.2 ml of virus suspension containing 60 to 100 plaque-forming unit (PFU) per well; the Multiplicity of infection (MOI) was 0.001-0.002 PFU/cell).
# D1 and D2 are the doses of the two drugs, and Dx is a dose causing to x% effect (LD0.5 is EC50). Briefly, the software extrapolated a combination index (CI) representing the interaction between the two drugs at specified levels of virus inhibition (that is 50%, 75%, 90%, 95%) versus the percentages of the inhibition induced by each drug alone and in combination (equation 16 in Chou).
# A weighted average CI (CIwt) was then calculated for each combination as (CI50+ 2×CI75+3×CI90+4×CI95)/10, to access the drug combinatory effects.
# The dose reduction index (DRI) was then calculated as described in Chou. In general, the DRI measures the fold of dose reduction of each drug in the combination at a given effect level compared with the doses of each drug alone. For each one of the below tables: Fa - fraction of virus affected; doses are provided in µm.
smiles,measurement,setting,value
CC1CCC2[C@@H](C)[C@H](N3CCS(=O)(=O)CC3)OC3O[C@]4(C)CCC1C32OO4 (stereo in doubt) [artemisone],Tolerability,[1],no effect as compared to controls
same,Neurotoxicity,[2],does not elicit neurotoxicity
same,Dose of drug alone at Fa 0.75,"HCMV TB40/E strain; Fa 0.75, drug alone, listed as Art",2.189 µm and 2.23 µm and 3.071 µm
same,Dose of drug alone at Fa 0.9,HCMV TB40/E strain,7.66 µm
same,Dose of drug alone at Fa 0.9,HCMV TB40/E strain; listed as Art,7.658 µm and 7.87 µm and 8.905 µm
same,Dose of drug alone at Fa 0.95,"HCMV TB40/E strain; Fa 0.95, drug alone, listed as Art",17.9447 µm and 18.59 µm and 18.3723 µm
same,Dose of drug alone at Fa 0.97,"HCMV TB40/E strain; Fa 0.97, drug alone, listed as Art",32.8918 µm and 34.26 µm and 30.7567 µm
same,EC50,"HCMV TB40/E strain; Fa 0.5, drug alone, read-out: Dose of drug alone at Fa 0.5",626 nM
same,EC50,"HCMV TB40/E strain; drug alone, human foreskin fibroblasts, read-out: EC50 (concentration that reduced the plaque formation by 50%)",1000 nM
same,DRI (dose reduction index),"HCMV TB40/E strain; combination artemisone + brincidofovir, Fa 0.05",0.16
same,DRI (dose reduction index),"HCMV TB40/E strain; combination artemisone + brincidofovir, Fa 0.5",1.44
same,DRI (dose reduction index),"HCMV TB40/E strain; combination artemisone + brincidofovir, Fa 0.75",3.24
same,DRI (dose reduction index),"HCMV TB40/E strain; combination artemisone + brincidofovir, Fa 0.9",up to 7
same,DRI (dose reduction index),"HCMV TB40/E strain; combination artemisone + brincidofovir, Fa 0.9, listed as Art",7.28
same,DRI (dose reduction index),"HCMV TB40/E strain; combination artemisone + brincidofovir, Fa 0.95",12.65
same,DRI (dose reduction index),"HCMV TB40/E strain; combination artemisone + brincidofovir, Fa 0.97",18.74
same,DRI (dose reduction index),"HCMV TB40/E strain; combination artemisone + cidofovir, Fa 0.05",0.3256
same,DRI (dose reduction index),"HCMV TB40/E strain; combination artemisone + cidofovir, Fa 0.5",2.047
same,DRI (dose reduction index),"HCMV TB40/E strain; combination artemisone + cidofovir, Fa 0.75",4.066
same,DRI (dose reduction index),"HCMV TB40/E strain; combination artemisone + cidofovir, Fa 0.9",8.07
same,DRI (dose reduction index),"HCMV TB40/E strain; combination artemisone + cidofovir, Fa 0.9, listed as Art",8.075
same,DRI (dose reduction index),"HCMV TB40/E strain; combination artemisone + cidofovir, Fa 0.95",12.8761
same,DRI (dose reduction index),"HCMV TB40/E strain; combination artemisone + cidofovir, Fa 0.97",up to 17.9
same,DRI (dose reduction index),"HCMV TB40/E strain; combination artemisone + cidofovir, Fa 0.97, listed as Art",17.9464
same,DRI (dose reduction index),"HCMV TB40/E strain; combination artemisone + ganciclovir, Fa 0.05",0.2822
same,DRI (dose reduction index),"HCMV TB40/E strain; combination artemisone + ganciclovir, Fa 0.5",1.792
same,DRI (dose reduction index),"HCMV TB40/E strain; combination artemisone + ganciclovir, Fa 0.75",3.573
same,DRI (dose reduction index),"HCMV TB40/E strain; combination artemisone + ganciclovir, Fa 0.9, listed as Art",7.123
same,DRI (dose reduction index),"HCMV TB40/E strain; combination artemisone + ganciclovir, Fa 0.95",11.39
same,DRI (dose reduction index),"HCMV TB40/E strain; combination artemisone + ganciclovir, Fa 0.95, listed as Art",11.3872
same,DRI (dose reduction index),"HCMV TB40/E strain; combination artemisone + ganciclovir, Fa 0.97",15.9002
same,DRI (dose reduction index),"HCMV TB40/E strain; combination artemisone + letermovir, Fa 0.05",0.2276
same,DRI (dose reduction index),"HCMV TB40/E strain; combination artemisone + letermovir, Fa 0.5",1.624
same,DRI (dose reduction index),"HCMV TB40/E strain; combination artemisone + letermovir, Fa 0.75",3.38
same,DRI (dose reduction index),"HCMV TB40/E strain; combination artemisone + letermovir, Fa 0.9",7.04
same,DRI (dose reduction index),"HCMV TB40/E strain; combination artemisone + letermovir, Fa 0.9, listed as Art",7.037
same,DRI (dose reduction index),"HCMV TB40/E strain; combination artemisone + letermovir, Fa 0.95",11.5866
same,DRI (dose reduction index),"HCMV TB40/E strain; combination artemisone + letermovir, Fa 0.97",up to 16
same,DRI (dose reduction index),"HCMV TB40/E strain; combination artemisone + letermovir, Fa 0.97, listed as Art",16.5217
same,DRI (dose reduction index),"HCMV TB40/E strain; combination artemisone + maribavir, Fa 0.05",7.032
same,DRI (dose reduction index),"HCMV TB40/E strain; combination artemisone + maribavir, Fa 0.5",15.7458
same,DRI (dose reduction index),"HCMV TB40/E strain; combination artemisone + maribavir, Fa 0.75",21.2706
same,DRI (dose reduction index),"HCMV TB40/E strain; combination artemisone + maribavir, Fa 0.9",28.7
same,DRI (dose reduction index),"HCMV TB40/E strain; combination artemisone + maribavir, Fa 0.9, listed as Art",28.7339
same,DRI (dose reduction index),"HCMV TB40/E strain; combination artemisone + maribavir, Fa 0.95",35.2558
same,DRI (dose reduction index),"HCMV TB40/E strain; combination artemisone + maribavir, Fa 0.97",40.8
same,DRI (dose reduction index),"HCMV TB40/E strain; combination artemisone + maribavir, Fa 0.97, listed as Art",40.7793
